Data on one compound can be found in patent US12329753B2, “Phosphodiesterase inhibitor treatment” (Cyrano Therapeutics, Inc., priority 2008, dated 2025).

This test has as its system asthmatic patients. Briefly: sGaw after inhaled dry powder in asthmatic patients, single blind study (Examples 5, 6). The class given is in vivo, human. Conditions: dry powder 1 mg inhaled. On the procedure: To test this theory, asthmatic patients are enrolled in a dose escalating single blind study. On arrival to the clinic, subjects are allowed to rest for 20 minutes before baseline measurements of FEV1 (six recordings) and sGaw (five recordings) are made. Subjects receive a dry powder dispenser loaded with a dose of 2 mg theophylline or a dry powder carrier. […] After each inhalation, measurements of sGaw are made at 1, 3, 5, 10, 15, 20, 25, and 30 minutes.
On completion of the last recording, subjects inhale a 200 μg dose of salbutamol from a metered inhaler and a further measurement of sGaw is made after 15 minutes. Subjects are also monitored for coughing and are questioned about the taste of the drug.
Asthmatic patients are enrolled in a dose escalating single blind study. On arrival to the clinic, subjects are allowed to rest for 20 minutes before baseline measurements of FEV1 (six recordings) and sGaw (five recordings) are made. Subjects receive a dry powder dispenser loaded with a dose of 1 mg IBMX formulated as a dry powder or a dry powder carrier. […] After each inhalation, measurements of sGaw are made at 1, 3, 5, 10, 15, 20, 25, and 30 minutes.
On completion of the last recording, subjects inhale a 200 μg dose of salbutamol from a metered inhaler and a further measurement of sGaw mad after 15 minutes. Subjects are also be monitored for coughing and are questioned about the taste of the drug.

Turning to `CC(C)Cn1c(=O)n(C)c(=O)c2[nH]cnc21` [IBMX, 3-isobutyl-1-methylxanthine], the “increase in sGaw versus 200 μg salbutamol” value was “comparable with that produced by salbutamol”; the “time until sGaw baseline is reached” value is “one and a half hours”. Besides, where the note is “after 30 minutes”, the “sGaw above baseline measurement” value is 20%.
